Reference: ChEMBL document CHEMBL4765432, “Design and synthesis of novel Flavone-based histone deacetylase inhibitors antagonizing activation of STAT3 in breast cancer” (Eur J Med Chem, 2020)
Calls of active or inactive are those of the source. No cut-off for these calls is given here.

How the values were obtained:
[1] = test system: BT-549; assay: Potency index, ratio of IC50 of SAHA to IC50 of compound for cytotoxicity against human BT-549 cells assessed as reduction in cell viability incubated for 48 hrs by MTT assay; type: functional
[2] = Genotoxicity in Salmonella typhimurium TA1537 by Ames test; type: toxicity; settings: salmonella enterica subsp. enterica serovar typhimurium
[3] = test system: MDA-MB-231; assay: Induction of cell cycle arrest in human MDA-MB-231 cells assessed as G0/G1 phase accumulation at 2 uM incubated for 24 hrs by PI staining based flow cytometry analysis (reference value: 29.10 %); type: functional
[4] = test system: HEK-293T; assay: Cytotoxicity against human HEK293T cells assessed as reduction in cell viability incubated for 48 hrs by MTT assay; type: ADME, cell-based
[5] = Half life in Sprague-Dawley rat at 20 mg/kg, po measured upto 12 hrs by LC-MS/MS analysis; type: ADME, organism-based; settings: in vivo
[6] = Toxicity in C57BL/6 mouse assessed death of organism at 50 mg/kg, po observed for 20 days; type: organism-based; settings: in vivo, 480 h, time 20 day
[7] = test system: 4T1; assay: Induction of cell cycle arrest in mouse 4T1 cells assessed as G2/M phase accumulation at 1 uM incubated for 24 hrs by PI staining based flow cytometry analysis (reference value: 38.51 %); type: functional
[8] = biological target: Histone deacetylase 7 (Homo sapiens, UniProt Q8WUI4); assay: Inhibition of recombinant human N-terminal GST-tagged HDAC-7 (501 to end residues) expressed in baculovirus infected in Sf9 cells using Boc-Lys (q-Ac)-AMC as substrate incubated for 10 mins followed by substrate addition and measured after 30 mins by fluorescence based assay
[9] = test system: 4T1; assay: Induction of apoptosis in mouse 4T1 cells assessed as late apoptotic cells at 2.5 uM incubated for 72 hrs by annexinV-FITC and PI staining based flow cytometry analysis (reference value: 2.24 %); type: functional
[10] = test system: 4T1; assay: Induction of apoptosis in mouse 4T1 cells implanted in BALB/c mouse assessed as increase in caspase-3 cleavage by immunohistochemistry method; type: functional, cell-based
[11] = test system: MCF7; assay: Cytotoxicity against human MCF7 cells assessed as reduction in cell viability incubated for 48 hrs by MTT assay; type: functional, cell-based; settings: MCF7, 48 h
[12] = test system: MDA-MB-231; assay: Induction of apoptosis in human MDA-MB-231 cells assessed as viable cells at 2.5 uM incubated for 72 hrs by annexinV-FITC and PI staining based flow cytometry analysis (reference value: 90.3 %); type: functional; settings: read-out: Activity
[13] = test system: MDA-MB-231; assay: Induction of apoptosis in human MDA-MB-231 cells assessed as late apoptotic cells at 5 uM incubated for 72 hrs by annexinV-FITC and PI staining based flow cytometry analysis (reference value: 3.79 %); type: functional
[14] = MRT in Sprague-Dawley rat at 20 mg/kg, po measured upto 12 hrs by LC-MS/MS analysis; type: ADME, organism-based; settings: in vivo
[15] = test system: 4T1; assay: Induction of apoptosis in mouse 4T1 cells assessed as late apoptotic cells at 1 uM incubated for 72 hrs by annexinV-FITC and PI staining based flow cytometry analysis (reference value: 2.24 %); type: functional
[16] = test system: MDA-MB-231; assay: Cytotoxicity against human MDA-MB-231 cells assessed as reduction in cell viability incubated for 48 hrs by MTT assay; type: functional, cell-based; settings: MDA-MB-231, 48 h
[17] = test system: HepG2; assay: Cytotoxicity against human HepG2 cells assessed as reduction in cell viability incubated for 48 hrs by MTT assay; type: functional, cell-based; settings: HepG2, 48 h
[18] = biological target: Polyamine deacetylase HDAC10 (Homo sapiens, UniProt Q969S8); assay: Inhibition of recombinant human N-terminal GST-tagged HDAC-10 (1 to 482 residues) expressed in baculovirus infected in Sf9 cells using Boc-Lys (q-Ac)-AMC as substrate incubated for 10 mins followed by substrate addition and measured after 30 mins by fluorescence based assay
[19] = test system: MDA-MB-231; assay: Potency index, ratio of IC50 of SAHA to IC50 of compound for cytotoxicity against human MDA-MB-231 cells assessed as reduction in cell viability incubated for 48 hrs by MTT assay; type: functional
[20] = test system: 4T1; assay: Induction of apoptosis in mouse 4T1 cells assessed as viable cells at 5 uM incubated for 72 hrs by annexinV-FITC and PI staining based flow cytometry analysis (reference value: 91.1 %); type: functional; settings: read-out: Activity
[21] = test system: MDA-MB-231; assay: Induction of apoptosis in human MDA-MB-231 cells assessed as late apoptotic cells at 2.5 uM incubated for 72 hrs by annexinV-FITC and PI staining based flow cytometry analysis (reference value: 3.79 %); type: functional
[22] = Cmax in Sprague-Dawley rat at 20 mg/kg, po measured upto 12 hrs by LC-MS/MS analysis; type: ADME, organism-based; design: route oral, dose 20 mg/kg, time <=12; settings: in vivo
[23] = Genotoxicity in Salmonella typhimurium TA100 by Ames test; type: toxicity; settings: salmonella enterica subsp. enterica serovar typhimurium
[24] = test system: MDA-MB-231; assay: Induction of apoptosis in human MDA-MB-231 cells assessed as effect on Bax expression at 0.5 to 10 uM incubated for 48 hrs by Western blot analysis; type: functional, cell-based; settings: dose 0.5-10 µM
[25] = test system: L02; assay: Cytotoxicity against human L02 cells assessed as reduction in cell viability incubated for 48 hrs by MTT assay; type: ADME, cell-based; settings: L02, 48 h
[26] = test system: MDA-MB-231; assay: Induction of apoptosis in human MDA-MB-231 cells assessed as early apoptotic cells at 2.5 uM incubated for 72 hrs by annexinV-FITC and PI staining based flow cytometry analysis (reference value: 5.57 %); type: functional
[27] = test system: MDA-MB-231; assay: Induction of cell cycle arrest in human MDA-MB-231 cells assessed as S phase accumulation at 1 uM incubated for 24 hrs by PI staining based flow cytometry analysis (reference value: 43.82 %); type: functional
[28] = biological target: Signal transducer and activator of transcription 3 (Homo sapiens) (UniProt P40763); assay: Inhibition of STAT3 in human MDA-MB-231 cells assessed as reduction in STAT-3 phosphorylation incubated for 8 hrs by Western blot analysis; type: cell-based; settings: dose 2.5-20 µM
[29] = test system: 4T1; assay: Induction of apoptosis in mouse 4T1 cells assessed as early apoptotic cells at 1 uM incubated for 72 hrs by annexinV-FITC and PI staining based flow cytometry analysis (reference value: 1.65 %); type: functional
[30] = test system: A549; assay: Cytotoxicity against human A549 cells assessed as reduction in cell viability incubated for 48 hrs by MTT assay; type: functional, cell-based; settings: A549, 48 h
[31] = test system: 4T1; assay: Induction of apoptosis in mouse 4T1 cells assessed as necrotic cells at 5 uM incubated for 72 hrs by annexinV-FITC and PI staining based flow cytometry analysis (reference value: 5.00 %); type: functional
[32] = test system: MDA-MB-231; assay: Induction of apoptosis in human MDA-MB-231 cells assessed as late apoptotic cells at 1 uM incubated for 72 hrs by annexinV-FITC and PI staining based flow cytometry analysis (reference value: 3.79 %); type: functional
[33] = test system: MDA-MB-468; assay: Potency index, ratio of IC50 of SAHA to IC50 of compound for cytotoxicity against human MDA-MB-468 cells assessed as reduction in cell viability incubated for 48 hrs by MTT assay; type: functional
[34] = Genotoxicity in Salmonella typhimurium WP2 uvrA (pKM 101) by Ames test; type: toxicity; settings: salmonella enterica subsp. enterica serovar typhimurium
[35] = test system: MDA-MB-231; assay: Induction of apoptosis in human MDA-MB-231 cells assessed as early apoptotic cells at 1 uM incubated for 72 hrs by annexinV-FITC and PI staining based flow cytometry analysis (reference value: 5.57 %); type: functional

Chain of Histone deacetylase 7 (Q8WUI4 whole entry): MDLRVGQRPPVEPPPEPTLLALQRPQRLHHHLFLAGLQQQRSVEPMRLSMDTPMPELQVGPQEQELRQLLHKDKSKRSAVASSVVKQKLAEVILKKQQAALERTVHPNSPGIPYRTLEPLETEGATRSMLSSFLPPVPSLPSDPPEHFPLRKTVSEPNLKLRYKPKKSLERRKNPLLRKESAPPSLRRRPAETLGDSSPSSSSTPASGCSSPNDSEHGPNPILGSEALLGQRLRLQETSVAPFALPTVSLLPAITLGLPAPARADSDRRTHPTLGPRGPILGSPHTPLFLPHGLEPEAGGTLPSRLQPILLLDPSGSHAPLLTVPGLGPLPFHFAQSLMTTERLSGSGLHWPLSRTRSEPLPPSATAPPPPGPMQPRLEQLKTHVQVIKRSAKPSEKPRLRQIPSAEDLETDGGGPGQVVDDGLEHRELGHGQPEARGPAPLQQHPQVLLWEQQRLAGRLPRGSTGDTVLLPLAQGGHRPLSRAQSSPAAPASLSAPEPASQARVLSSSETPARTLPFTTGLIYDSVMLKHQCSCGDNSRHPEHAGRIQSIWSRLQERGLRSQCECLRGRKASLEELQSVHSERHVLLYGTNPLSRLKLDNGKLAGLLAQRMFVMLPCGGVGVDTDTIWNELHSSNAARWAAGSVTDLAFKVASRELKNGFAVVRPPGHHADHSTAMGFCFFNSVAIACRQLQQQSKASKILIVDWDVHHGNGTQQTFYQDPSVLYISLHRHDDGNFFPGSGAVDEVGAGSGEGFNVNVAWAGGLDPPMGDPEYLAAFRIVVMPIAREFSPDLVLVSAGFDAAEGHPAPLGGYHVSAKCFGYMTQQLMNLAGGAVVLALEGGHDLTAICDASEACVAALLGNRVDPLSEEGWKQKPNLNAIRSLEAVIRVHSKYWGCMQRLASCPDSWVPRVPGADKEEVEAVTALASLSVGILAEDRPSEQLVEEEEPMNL
Chain of Polyamine deacetylase HDAC10 (Q969S8 whole entry, the tested form may be a part): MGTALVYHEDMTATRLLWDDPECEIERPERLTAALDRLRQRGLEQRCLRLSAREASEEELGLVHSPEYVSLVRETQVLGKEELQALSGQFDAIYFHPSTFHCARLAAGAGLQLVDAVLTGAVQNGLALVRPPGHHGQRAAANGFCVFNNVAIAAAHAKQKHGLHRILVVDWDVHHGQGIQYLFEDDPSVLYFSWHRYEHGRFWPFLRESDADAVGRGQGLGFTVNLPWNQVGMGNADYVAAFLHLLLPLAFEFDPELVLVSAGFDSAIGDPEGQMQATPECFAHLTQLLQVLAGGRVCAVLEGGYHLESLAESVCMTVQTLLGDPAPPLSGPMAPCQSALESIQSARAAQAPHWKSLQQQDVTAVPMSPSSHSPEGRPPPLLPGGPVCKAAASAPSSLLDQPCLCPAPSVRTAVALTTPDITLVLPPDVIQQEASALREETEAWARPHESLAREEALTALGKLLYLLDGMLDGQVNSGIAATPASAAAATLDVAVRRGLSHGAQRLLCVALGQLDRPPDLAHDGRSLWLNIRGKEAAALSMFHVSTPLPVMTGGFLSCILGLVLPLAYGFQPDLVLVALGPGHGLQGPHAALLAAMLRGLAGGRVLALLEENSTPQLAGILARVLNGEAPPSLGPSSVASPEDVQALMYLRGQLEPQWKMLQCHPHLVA
Chain of Signal transducer and activator of transcription 3 (Homo sapiens) (P40763 whole entry): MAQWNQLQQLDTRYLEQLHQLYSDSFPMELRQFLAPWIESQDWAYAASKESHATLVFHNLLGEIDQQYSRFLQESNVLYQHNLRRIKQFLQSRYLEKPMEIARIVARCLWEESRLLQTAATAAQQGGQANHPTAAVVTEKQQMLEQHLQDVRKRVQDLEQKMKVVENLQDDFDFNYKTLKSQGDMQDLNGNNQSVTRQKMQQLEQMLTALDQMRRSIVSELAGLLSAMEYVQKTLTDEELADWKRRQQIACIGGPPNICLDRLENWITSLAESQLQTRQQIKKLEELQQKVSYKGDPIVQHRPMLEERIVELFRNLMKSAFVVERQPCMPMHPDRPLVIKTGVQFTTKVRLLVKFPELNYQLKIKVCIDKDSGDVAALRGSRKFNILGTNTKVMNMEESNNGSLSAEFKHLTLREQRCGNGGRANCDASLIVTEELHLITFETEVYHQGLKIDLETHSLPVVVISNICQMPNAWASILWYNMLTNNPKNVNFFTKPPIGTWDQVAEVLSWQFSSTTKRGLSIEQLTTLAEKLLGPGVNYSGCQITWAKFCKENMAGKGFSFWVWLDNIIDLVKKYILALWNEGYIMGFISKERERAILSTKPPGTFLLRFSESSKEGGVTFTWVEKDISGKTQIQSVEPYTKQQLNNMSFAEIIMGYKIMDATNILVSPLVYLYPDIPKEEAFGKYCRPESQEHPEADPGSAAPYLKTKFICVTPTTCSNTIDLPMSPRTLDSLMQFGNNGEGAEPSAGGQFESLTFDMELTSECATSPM

With CN(C)CCOc1ccc(-c2cc(=O)c3c(O)cc(OCCCCCC(=O)NO)cc3o2)cc1.Cl as the compound, how does the “Ratio IC50” value [1] read?
Its value is 2.

What about the Activity [2] of the same compound?
Its Activity is “Non-Toxic”.

What about the Activity [3] of the same compound?
Its Activity is 61.9%.

And the IC50 [4]?
The IC50 was greater than 10 µM.

What about the half-life [5] of the same compound?
The half-life was 14.9 min.

And the Activity [6]?
The Activity was “Non-Toxic”.

And the Activity [7]?
Its Activity is 19.39%.

And the IC50 [8]?
Its IC50 is greater than 10 µM.

What about the Activity [9] of the same compound?
Its Activity is 33.9%.

And the Activity [10]?
The Activity was “Active”.

And the IC50 [11]?
The IC50 was 4.7 µM.

And the viability at 2.5 µM [12]?
Its viability at 2.5 µM is 25.5%.

And the Activity [13]?
Its Activity is 27.2%.

And the MRT [14]?
Its MRT is 65.8 min.

What about the Activity [15] of the same compound?
The Activity was 8.59%.

What about the IC50 [16] of the same compound?
Its IC50 is 2.05 µM.

And the IC50 [17]?
Its IC50 is 1.16 µM.

What about the IC50 [18] of the same compound?
Its IC50 is 0.247 µM.

What about the “Ratio IC50” value [19] of the same compound?
The value was 2.

And the viability at 5 µM [20]?
Its viability at 5 µM is 22.5%.

And the Activity [21]?
The Activity was 24.3%.

What about the Cmax [22] of the same compound?
The Cmax was 1280 ng/mL.

What about the Activity [23] of the same compound?
The Activity was “Toxic”.

And the Activity [24]?
Its Activity is “inactive”.

And the IC50 [25]?
Its IC50 is greater than 10 µM.

And the Activity [26]?
The Activity was 50.1%.

What about the Activity [27] of the same compound?
Its Activity is 8.09%.

What about the inhibition [28] of the same compound?
Its inhibition is “Dose-dependent effect”.

What about the Activity [29] of the same compound?
The Activity was 15.5%.

What about the IC50 [30] of the same compound?
Its IC50 is 1.08 µM.

And the Activity [31]?
Its Activity is 0.852%.

What about the Activity [32] of the same compound?
The Activity was 12%.

What about the “Ratio IC50” value [33] of the same compound?
Its value is 2.

What about the Activity [34] of the same compound?
The Activity was “Non-Toxic”.

And the Activity [35]?
The Activity was 23.1%.
